Assay [1] deals with T1, Three-prime repair exonuclease 1 (Homo sapiens, UniProt Q9NSU2).
T1 sequence (Q9NSU2 whole entry): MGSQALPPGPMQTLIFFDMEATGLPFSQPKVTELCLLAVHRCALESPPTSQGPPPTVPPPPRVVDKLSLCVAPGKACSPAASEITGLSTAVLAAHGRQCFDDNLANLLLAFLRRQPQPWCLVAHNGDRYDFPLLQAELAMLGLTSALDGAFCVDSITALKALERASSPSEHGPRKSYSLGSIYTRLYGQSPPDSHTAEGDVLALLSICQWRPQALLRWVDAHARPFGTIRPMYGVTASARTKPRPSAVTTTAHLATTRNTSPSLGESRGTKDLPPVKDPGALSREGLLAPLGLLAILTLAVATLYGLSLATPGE
Briefly: Exonuclease Assay. The protocol: To evaluate the effect of compounds on TREX1 activity, test compounds were serially diluted (11-point, 3-fold) from 10 mM stock solutions and delivered to 384-well low-volume assay plates in 80 nL DMSO using an acoustic dispenser. Next, 4 μL of human TREX1 (0.5 nM), or murine TREX1 (1 nM), diluted in assay buffer (20 mM Tris pH 7.5, 5 mM MgCl2, 100 μg/mL BSA, 0.002% Triton X-100, 2 mM DTT), was added to the assay plate. After incubating for 30 minutes, 4 μL of labeled DNA oligonucleotide (500 nM) in assay buffer was added to initiate TREX1 exonuclease activity. The reaction was allowed to proceed for 45 minutes at room temperature prior to the addition of 4 μL of 150 mM EDTA to halt TREX1 activity. Assay plates were equilibrated for an additional 30 minutes and read on an EnVision Plate Reader (Perkin Elmer) to measure fluorescence emission at 535 nm following excitation at 485 nm. Fluorescence was plotted as a function of log molar compound concentration and fit to four-parameter dose-response equation to determine compound IC50.

Assay [2] has as its target T2, Three-prime repair exonuclease 1 (Mus musculus, UniProt Q91XB0).
T2 sequence (Q91XB0 whole entry): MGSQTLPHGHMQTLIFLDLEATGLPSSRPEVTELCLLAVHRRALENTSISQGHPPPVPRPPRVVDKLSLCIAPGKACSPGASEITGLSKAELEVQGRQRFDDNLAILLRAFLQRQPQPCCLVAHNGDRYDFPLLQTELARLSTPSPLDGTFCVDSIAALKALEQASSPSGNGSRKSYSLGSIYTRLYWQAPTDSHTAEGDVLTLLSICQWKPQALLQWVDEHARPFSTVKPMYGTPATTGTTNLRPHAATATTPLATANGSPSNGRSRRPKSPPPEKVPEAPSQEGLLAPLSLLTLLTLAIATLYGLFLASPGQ

For 2 compounds, IC50 results are on record in BindingDB's records for patent US11306098 (Venenum Biodesign, 2022).

SMILES strings stand for the structures. Where only a bound is given, the exact number is not on record here.

Regarding `CC(C)C[C@H](C(=O)NCc1ccc(Cl)c(Cl)c1)N1CCC(CCc2ccccc2)N2C[C@H](N)C[C@H]2C1=O` (some centres undefined) [US11306098, Example 1], the IC50 in assay [1] and in assay [2] was less than 1000 nM each time.

Turning to `N[C@@H]1C[C@H]2C(=O)N([C@H](CO)C(=O)NCc3ccc(Cl)c(Cl)c3)CCC(CCc3ccccc3)N2C1` (some centres undefined) [US11306098, Example 3], the IC50 in assay [1] and in assay [2] was less than 1000 nM throughout.
